In patent US11427604B2 (Mindset Pharma Inc., priority 2020, dated 2022):
Where “and” joins values, the source holds several entries; their conditions need not be identical. Equal values may be shown once. Read-outs that look alike come from different tables or passages of the source.

Experiments:
[1] = In vivo pharmacokinetics in male Sprague-Dawley rats; parameters: species or system rat; conditions: for AUC(0-t): read-out: AUC0-tlast; for MRT inf: read-out: MRT0-inf; for half-life: read-out: Apparent t1/2 (converted)
Protocol: Male C57BL/6 mice (25-30 g) and male Sprague-Dawley rats (250-325 g) from Charles River Labs were acclimatized for a minimum of 5 days prior to dosing. Body weights were recorded on the day of dosing.
Animals dosed p.o. were deprived of food overnight and fed ˜2 h following dosing.
Formulations were administered intravenously (i.v.) via the tail vein or orally (p.o.) by gavage with disposable feeding needles.
Serial blood samples were collected via tail snip. Terminal blood samples were collected under isoflurane anesthesia by cardiac puncture.
All blood samples were transferred into K2EDTA tubes on wet ice and centrifuged within 5 min (3200×g for 5 min at 4° C.) to obtain plasma. Plasma was stored at −80° C. until analysis.
Mouse or rat plasma, as applicable.
AB Sciex QTRAP 4000 or 6500 MS/MS system equipped with an LC system with a binary pump, a solvent degasser, a thermostated column compartment and a multiplate autosampler. i. Analysis software: Phoenix® WinNonlin® 8.2 (Pharsight, Certara, Mountainview, Calif.) ii. Analysis methods: non-compartmental analysis, linear up/log down trapezoidal rule iii. PK parameters: C0, t1/2, AUC0-tlast, AUC0-∞, CL, VSS, MRT, tmax(po), Cmax(po), F, as appropriate

C57BL/6J mice = assay: Mouse head twitch response (HTR); assay type: in vivo; conditions: for Head Twitch 10 mins, AVG / Head Twitch 20 mins, AVG / Head Twitch 30 mins, AVG / Head Twitch 40 mins, AVG / Head Twitch 50 mins, AVG / Head Twitch 60 mins, AVG / Head Twitch Total, AVG: group mean; for Head Twitch Total, AVG: over 1 h
Protocol: Data is expressed as mean±SEM. The induction of head twitches elicited by 5-HT2A receptor agonists is believed to represent a behavioural proxy of their psychedelic effects.
The effect of different doses of exemplary compounds of Formula I were evaluated on head-twitch response (HTR) as a behavior-based model of psychedelic activity.
Male, C57BL/6J mice (body weight range 20-30 g) were dosed with the appropriate dose of test article, and following a 1-minute pre-treatment time, placed in individual observation chambers. Animals were visually assessed for the incidence head twitches continuously over a 1 hr period. Head twitches were defined as a rapid jerk of the head which was not elicited by an external tactile stimulus (Corne and Pickering, Psychopharmacologia, 1967, 11(1): 65-78). Each head twitch was individually counted by a trained observer, and the data expressed as the mean+SEM of 6-10 mice per group. Mice were used in a single experiment only.

[2] = Rat liver microsomes stability with NADPH
[3] = p.o. 3.0 mg/kg per title (dose row prints 10)
[4] = rat, plasma, iv, i.v. 0.3 mg/kg
[5] = rat, plasma, po, p.o. 3.0 mg/kg per title (dose row prints 10)
[6] = rat, plasma, sc, s.c. 0.3 mg/kg

[2H]C([2H])([2H])N(C([2H])([2H])[2H])C([2H])([2H])C([2H])([2H])c1c[nH]c2cccc(O)c12 [Compound I-45, 3-(2-(bis(methyl-d3)amino)ethyl-1,1,2,2-d4)-1H-indol-4-ol]
AUC0-inf/Dose ([1]; i.v. 0.3 mg/kg): 181 ± 30.8 kg·ng·h/mL/mg
AUC(0-inf) ([1]; i.v. 0.3 mg/kg): 117 ± 11.5 ng·h/mL
Apparent t1/2 ([1]; i.v. 0.3 mg/kg): 34.6 ± 3.17 h
AUC0-inf/Dose [1, 3]: 181 ± 14.6 kg·ng·h/mL/mg
Cmax/Dose [1, 3]: 79.2 ± 24.4 kg·ng/mL/mg
clearance [1, 4]: 143 mL/min/kg
AUC(0-t) [1, 4]: 35.2 ± 3.45 ng·h/mL
MRT inf [1, 4]: 89.4 ± 32.2 min
Cmax [1, 5]: 238 ± 73.3 ng/mL
Tmax [1, 5]: 20 ± 8.64 min
bioavailability [1, 5]: 155 ± 12.4%
AUC(0-inf) ([1]; rat, plasma, po, p.o. 3.0 mg/kg per title (dose row prints 10), read-out: AUC0-inf): 543 ± 43.7 ng·h/mL
AUC(0-t) [1, 5]: 534 ± 38.7 ng·h/mL
half-life [1, 5]: 157 ± 47.7 min
MRT inf [1, 5]: 166 ± 29.2 min
Cmax [1, 6]: 30.2 ± 12.2 ng/mL
Tmax [1, 6]: 16.7 ± 12.6 min
bioavailability [1, 6]: 125 ± 30.4%
AUC(0-inf) ([1]; rat, plasma, sc, s.c. 0.3 mg/kg, read-out: AUC0-inf): 35.9 ± 8.71 ng·h/mL
AUC(0-t) [1, 6]: 32 ± 9.2 ng·h/mL
half-life [1, 6]: 38.8 ± 12.7 min
MRT inf [1, 6]: 59.5 ± 13.7 min
AUC0-inf/Dose ([1]; s.c. 0.3 mg/kg): 120 ± 29.0 kg·ng·h/mL/mg
Cmax/Dose ([1]; s.c. 0.3 mg/kg): 101 ± 40.7 kg·ng/mL/mg
Head Twitch 10 mins, individual animal (C57BL/6J mice; 0.03 mg/kg SC, animals C1-C6): 0 (2×) and 1 and 3 and 2 (2×)
Head Twitch 20 mins, individual animal (C57BL/6J mice; 0.03 mg/kg SC, animals C1-C6): 0 (5×) and 1
Head Twitch 30 mins, individual animal (C57BL/6J mice; 0.03 mg/kg SC, animals C1-C6): 0
Head Twitch 40 mins, individual animal (C57BL/6J mice; 0.03 mg/kg SC, animals C1-C6): 0
Head Twitch 50 mins, individual animal (C57BL/6J mice; 0.03 mg/kg SC, animals C1-C6): 0 (5×) and 1
Head Twitch 60 mins, individual animal (C57BL/6J mice; 0.03 mg/kg SC, animals C1-C6): 0
Head Twitch Total, individual animal (C57BL/6J mice; 0.03 mg/kg SC, animals C1-C6, over 1 h): 0 and 1 (2×) and 4 and 2 (2×)
Head Twitch 10 mins, AVG (C57BL/6J mice; 0.03 mg/kg SC): 1.3
Head Twitch 20 mins, AVG (C57BL/6J mice; 0.03 mg/kg SC): 0.2
Head Twitch 30 mins, AVG (C57BL/6J mice; 0.03 mg/kg SC): 0.0
Head Twitch 40 mins, AVG (C57BL/6J mice; 0.03 mg/kg SC): 0.0
Head Twitch 50 mins, AVG (C57BL/6J mice; 0.03 mg/kg SC): 0.2
Head Twitch 60 mins, AVG (C57BL/6J mice; 0.03 mg/kg SC): 0.0
Head Twitch Total, AVG (C57BL/6J mice; 0.03 mg/kg SC): 1.7
Head Twitch 10 mins, individual animal (C57BL/6J mice; 0.1 mg/kg SC, animals P1-P10): 3 and 6 and 0 (3×) and 1 (3×) and 2 (2×)
Head Twitch 20 mins, individual animal (C57BL/6J mice; 0.1 mg/kg SC, animals P1-P10): 1 (4×) and 0 (4×) and 2 (2×)
Head Twitch 30 mins, individual animal (C57BL/6J mice; 0.1 mg/kg SC, animals P1-P10): 0 (6×) and 1 (4×)
Head Twitch 40 mins, individual animal (C57BL/6J mice; 0.1 mg/kg SC, animals P1-P10): 1 (2×) and 0 (8×)
Head Twitch 50 mins, individual animal (C57BL/6J mice; 0.1 mg/kg SC, animals P1-P10): 0 (7×) and 2 and 1 (2×)
Head Twitch 60 mins, individual animal (C57BL/6J mice; 0.1 mg/kg SC, animals P1-P10): 0
Head Twitch Total, individual animal (C57BL/6J mice; 0.1 mg/kg SC, animals P1-P10, over 1 h): 5 and 9 and 3 (3×) and 2 (3×) and 1 and 4
Head Twitch 10 mins, AVG (C57BL/6J mice; 0.1 mg/kg SC): 1.6
Head Twitch 20 mins, AVG (C57BL/6J mice; 0.1 mg/kg SC): 0.8
Head Twitch 30 mins, AVG (C57BL/6J mice; 0.1 mg/kg SC): 0.4
Head Twitch 40 mins, AVG (C57BL/6J mice; 0.1 mg/kg SC): 0.2
Head Twitch 50 mins, AVG (C57BL/6J mice; 0.1 mg/kg SC): 0.4
Head Twitch 60 mins, AVG (C57BL/6J mice; 0.1 mg/kg SC): 0.0
Head Twitch Total, AVG (C57BL/6J mice; 0.1 mg/kg SC): 3.4
Head Twitch 10 mins, individual animal (C57BL/6J mice; 0.3 mg/kg SC, animals Q1-Q10): 3 and 1 (4×) and 0 (2×) and 2 (3×)
Head Twitch 20 mins, individual animal (C57BL/6J mice; 0.3 mg/kg SC, animals Q1-Q10): 0 (4×) and 1 (6×)
Head Twitch 30 mins, individual animal (C57BL/6J mice; 0.3 mg/kg SC, animals Q1-Q10): 1 (3×) and 0 (6×) and 3
Head Twitch 40 mins, individual animal (C57BL/6J mice; 0.3 mg/kg SC, animals Q1-Q10): 0 (8×) and 1 and 2
Head Twitch 50 mins, individual animal (C57BL/6J mice; 0.3 mg/kg SC, animals Q1-Q10): 0 (8×) and 1 (2×)
Head Twitch 60 mins, individual animal (C57BL/6J mice; 0.3 mg/kg SC, animals Q1-Q10): 0
Head Twitch Total, individual animal (C57BL/6J mice; 0.3 mg/kg SC, animals Q1-Q10, over 1 h): 4 (4×) and 2 (2×) and 1 and 3 and 6 and 0
Head Twitch 10 mins, AVG (C57BL/6J mice; 0.3 mg/kg SC): 1.3
Head Twitch 20 mins, AVG (C57BL/6J mice; 0.3 mg/kg SC): 0.6
Head Twitch 30 mins, AVG (C57BL/6J mice; 0.3 mg/kg SC): 0.6
Head Twitch 40 mins, AVG (C57BL/6J mice; 0.3 mg/kg SC): 0.3
Head Twitch 50 mins, AVG (C57BL/6J mice; 0.3 mg/kg SC): 0.2
Head Twitch 60 mins, AVG (C57BL/6J mice; 0.3 mg/kg SC): 0.0
Head Twitch Total, AVG (C57BL/6J mice; 0.3 mg/kg SC): 3.0
Head Twitch 10 mins, individual animal (C57BL/6J mice; 1 mg/kg SC, animals R1-R6): 0 and 4 and 1 and 3 (3×)
Head Twitch 20 mins, individual animal (C57BL/6J mice; 1 mg/kg SC, animals R1-R6): 0 (2×) and 2 and 1 and 7 and 8
Head Twitch 30 mins, individual animal (C57BL/6J mice; 1 mg/kg SC, animals R1-R6): 1 (2×) and 0 (3×) and 3
Head Twitch 40 mins, individual animal (C57BL/6J mice; 1 mg/kg SC, animals R1-R6): 0 (4×) and 2 (2×)
Head Twitch 50 mins, individual animal (C57BL/6J mice; 1 mg/kg SC, animals R1-R6): 0
Head Twitch 60 mins, individual animal (C57BL/6J mice; 1 mg/kg SC, animals R1-R6): 0
Head Twitch Total, individual animal (C57BL/6J mice; 1 mg/kg SC, animals R1-R6, over 1 h): 1 and 6 and 2 and 3 and 15 and 14
Head Twitch 10 mins, AVG (C57BL/6J mice; 1 mg/kg SC): 2.3
Head Twitch 20 mins, AVG (C57BL/6J mice; 1 mg/kg SC): 3.0
Head Twitch 30 mins, AVG (C57BL/6J mice; 1 mg/kg SC): 0.8
Head Twitch 40 mins, AVG (C57BL/6J mice; 1 mg/kg SC): 0.7
Head Twitch 50 mins, AVG (C57BL/6J mice; 1 mg/kg SC): 0.0
Head Twitch 60 mins, AVG (C57BL/6J mice; 1 mg/kg SC): 0.0
Head Twitch Total, AVG (C57BL/6J mice; 1 mg/kg SC): 6.8
Head Twitch 10 mins, individual animal (C57BL/6J mice; 3 mg/kg SC, animals S1-S6): 1 (2×) and 3 and 2 and 6 and 0
Head Twitch 20 mins, individual animal (C57BL/6J mice; 3 mg/kg SC, animals S1-S6): 2 (2×) and 1 and 0 and 3 and 5
Head Twitch 30 mins, individual animal (C57BL/6J mice; 3 mg/kg SC, animals S1-S6): 2 (2×) and 1 (3×) and 0
Head Twitch 40 mins, individual animal (C57BL/6J mice; 3 mg/kg SC, animals S1-S6): 2 and 0 (4×) and 3
Head Twitch 50 mins, individual animal (C57BL/6J mice; 3 mg/kg SC, animals S1-S6): 1 (2×) and 0 (4×)
Head Twitch 60 mins, individual animal (C57BL/6J mice; 3 mg/kg SC, animals S1-S6): 0 (5×) and 1
Head Twitch Total, individual animal (C57BL/6J mice; 3 mg/kg SC, animals S1-S6, over 1 h): 8 and 5 and 3 and 4 and 14 and 7
Head Twitch 10 mins, AVG (C57BL/6J mice; 3 mg/kg SC): 2.2
Head Twitch 20 mins, AVG (C57BL/6J mice; 3 mg/kg SC): 2.2
Head Twitch 30 mins, AVG (C57BL/6J mice; 3 mg/kg SC): 1.2
Head Twitch 40 mins, AVG (C57BL/6J mice; 3 mg/kg SC): 0.8
Head Twitch 50 mins, AVG (C57BL/6J mice; 3 mg/kg SC): 0.3
Head Twitch 60 mins, AVG (C57BL/6J mice; 3 mg/kg SC): 0.2
Head Twitch Total, AVG (C57BL/6J mice; 3 mg/kg SC): 6.8
Head Twitch 10 mins, individual animal (C57BL/6J mice; 10 mg/kg SC, animals T1-T6): 3 and 1 (2×) and 0 (3×)
Head Twitch 20 mins, individual animal (C57BL/6J mice; 10 mg/kg SC, animals T1-T6): 1 (2×) and 0 (4×)
Head Twitch 30 mins, individual animal (C57BL/6J mice; 10 mg/kg SC, animals T1-T6): 0
Head Twitch 40 mins, individual animal (C57BL/6J mice; 10 mg/kg SC, animals T1-T6): 0 (4×) and 1 (2×)
Head Twitch 50 mins, individual animal (C57BL/6J mice; 10 mg/kg SC, animals T1-T6): 0
Head Twitch 60 mins, individual animal (C57BL/6J mice; 10 mg/kg SC, animals T1-T6): 0 (5×) and 3
Head Twitch Total, individual animal (C57BL/6J mice; 10 mg/kg SC, animals T1-T6, over 1 h): 4 and 2 and 5 and 0 (2×) and 1
Head Twitch 10 mins, AVG (C57BL/6J mice; 10 mg/kg SC): 0.8
Head Twitch 20 mins, AVG (C57BL/6J mice; 10 mg/kg SC): 0.3
Head Twitch 30 mins, AVG (C57BL/6J mice; 10 mg/kg SC): 0.0
Head Twitch 40 mins, AVG (C57BL/6J mice; 10 mg/kg SC): 0.3
Head Twitch 50 mins, AVG (C57BL/6J mice; 10 mg/kg SC): 0.0
Head Twitch 60 mins, AVG (C57BL/6J mice; 10 mg/kg SC): 0.5
Head Twitch Total, AVG (C57BL/6J mice; 10 mg/kg SC): 2.0
head twitch frequency compared to vehicle control (C57BL/6J mice; 0.3-10 mg/kg SC, measured over 1 h): dose dependent increase
Remaining Percentage (%) after 60 min ([2]; Rat, with NADPH, 2 μM): 3.34%
half-life at 2 μM ([2]; rat, microsomes): 12.2 min
microsomal CLint at 2 μM ([2]; rat, microsomes): 113 µL/min/mg
